What was measured:
[1] = biological target: T1, KRAS-WT and SOS1 proteins (Homo sapiens, UniProt Q07889); test: KRAS-WT/SOS1 binding assay (HTRF); conditions: Tag1-SOS1 / Tag2-KRAS-WT, 10 μM GTP, read-out: Activity Data in Kras: SOS1 Assay, Wild Type
T1 construct: purchased Cisbio 63ADK000CB15PEG
T1 sequence (Q07889 1-1333): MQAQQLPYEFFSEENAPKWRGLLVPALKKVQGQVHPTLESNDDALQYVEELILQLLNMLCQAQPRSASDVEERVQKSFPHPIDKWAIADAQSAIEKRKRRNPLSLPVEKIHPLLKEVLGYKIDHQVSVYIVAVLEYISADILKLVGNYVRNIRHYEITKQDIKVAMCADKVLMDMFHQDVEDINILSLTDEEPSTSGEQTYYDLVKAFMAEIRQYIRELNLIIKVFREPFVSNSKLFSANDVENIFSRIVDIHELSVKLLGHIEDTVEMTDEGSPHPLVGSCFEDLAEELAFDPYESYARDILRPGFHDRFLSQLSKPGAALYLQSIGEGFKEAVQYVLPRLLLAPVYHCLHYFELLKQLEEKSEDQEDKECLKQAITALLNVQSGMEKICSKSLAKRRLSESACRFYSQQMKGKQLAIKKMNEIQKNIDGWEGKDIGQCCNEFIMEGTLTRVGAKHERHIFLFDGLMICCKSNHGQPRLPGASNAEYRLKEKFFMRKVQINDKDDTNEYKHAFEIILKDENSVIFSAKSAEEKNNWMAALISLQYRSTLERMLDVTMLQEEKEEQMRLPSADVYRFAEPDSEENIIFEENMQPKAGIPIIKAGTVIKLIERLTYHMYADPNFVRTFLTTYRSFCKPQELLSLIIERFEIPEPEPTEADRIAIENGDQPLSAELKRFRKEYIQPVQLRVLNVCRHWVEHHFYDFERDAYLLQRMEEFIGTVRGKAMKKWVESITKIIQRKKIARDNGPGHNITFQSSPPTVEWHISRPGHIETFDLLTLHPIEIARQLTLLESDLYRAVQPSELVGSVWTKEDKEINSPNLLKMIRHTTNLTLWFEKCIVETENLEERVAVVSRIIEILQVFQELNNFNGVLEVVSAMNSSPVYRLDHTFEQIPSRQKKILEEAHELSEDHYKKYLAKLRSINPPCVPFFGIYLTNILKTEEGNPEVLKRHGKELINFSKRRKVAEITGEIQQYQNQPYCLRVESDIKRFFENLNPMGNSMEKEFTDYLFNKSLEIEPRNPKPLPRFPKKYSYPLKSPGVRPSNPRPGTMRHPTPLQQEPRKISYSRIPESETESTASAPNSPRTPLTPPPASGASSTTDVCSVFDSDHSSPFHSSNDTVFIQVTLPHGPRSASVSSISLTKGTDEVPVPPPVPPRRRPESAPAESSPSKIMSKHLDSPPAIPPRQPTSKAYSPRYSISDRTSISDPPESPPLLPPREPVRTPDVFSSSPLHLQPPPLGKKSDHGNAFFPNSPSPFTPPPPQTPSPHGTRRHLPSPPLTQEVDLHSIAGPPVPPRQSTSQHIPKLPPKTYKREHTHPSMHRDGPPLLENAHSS
Method: (§1) KRAS-WT (or G12C/G12D/G12V)/SOS1 Binding Assay
(§2) Low IC50 values are indicative of high potency of the SOS1 inhibitor compounds in this assay setting.
(§3) The KRAS-WT (or G12C/G12D/G12V)/SOS1 binding assay is performed using an assay kit (Cisbio, Cat #63ADK000CB15PEG or 63ADK000CB16PEG/63ADK000CB17PEG/63ADK000CB18PEG) according to the procedure recommended by the manufacturer. • 1) Thaw and prepare the working solution of Tag1-SOS1 protein and Tag2-KRAS-WT (or G12C/G12D/G12V) protein with final concentration of 10 μM GTP (Sigma, Cat #V900868). • 2) Thaw and prepare the working solution of anti-Tag1-Tb^3+ anti-Tag2-XL665. • 3) Dispense 2 μL of serially diluted compound, 4 μL of Tag1-SOS1 protein and 4 μL of Tag2-KRAS-WT (or G12C/G12D/G12V) protein with GTP into a ProxiPlate-384 Plus, white 384-shallow well microplate (PerkinElmer, Cat #6008280). • 4) Incubate the plate for 15 minutes at room temperature. • 5) Dispense 10 μL of pre-mixed anti-Tag1-Tb^3+ and anti-Tag2-XL665 into the plate. • 6) Seal the plate and incubate for 2 hours at room temperature. • 7) Remove the plate sealer and read on PHERAstar FS (BMG LABTECH, PHERAstar FS). • 8) Calculate the ratio of the acceptor and donor emission signals for each individual well using the following equation.
(§4) [formula] • 9) IC50 values are fitted and calculated by HTRF signal values and log of compound concentrations to nonlinear regression [Log (inhibitor) vs. Response−Variable Slope (four parameters)] using the GraphPad Prism 8.0.

[2] = biological target: T2, KRAS G12D and SOS1 proteins (Homo sapiens, UniProt Q07889); test: KRAS-G12D/SOS1 binding assay (HTRF); conditions: Tag1-SOS1 / Tag2-KRAS G12D, 10 μM GTP
T2 construct: purchased Cisbio 63ADK000CB17PEG
T2 sequence (Q07889 1-1333): T1 sequence (Q07889 1-1333)
Method: as §1, §2, §3, §4

| SMILES | IC50 [1] [nM] | IC50 [2] [nM] |
| --- | --- | --- |
| Cc1nc(N[C@H](C)c2cccc(C(F)(F)CO)c2)c2cc(-c3ccc(=O)[nH]c3)c3[nH]ncc3c2n1 [Example 28, (R)-5-(4-((1-(3-(1,1-difluoro-2-hydroxyethyl)phenyl)ethyl)amino)-2-methyl-7H-pyrazolo[3,4-h]quinazolin-6-yl)pyridin-2(1H)-one] | < 100 | < 100 |
| C[C@@H](Nc1nc2ccnn2c2cc(=O)n([C@H]3CCOC3)cc12)c1cccc(C(F)(F)F)c1 [Example 69, 7-((S)-tetrahydrofuran-3-yl)-5-(((R)-1-(3-(trifluoromethyl)phenyl)ethyl)amino)pyrazolo[1,5-a]pyrido[3,4-e]pyrimidin-8(7H)-one] | 100 to 500 | 100 to 500 |
| CC(=O)N1CC[C@H](Oc2cc3c(N[C@H](C)c4cccc5c4CCC5(F)F)nc(C)nc3n3cnnc23)C1 [Example 21, 1-((S)-3-((4-(((R)-1-(1,1-difluoro-2,3-dihydro-1H-inden-4-yl)ethyl)amino)-2-methyl-[1,2,4]triazolo[4′,3′:1,6]pyrido[2,3-d]pyrimidin-6-yl)oxy)pyrrolidin-1-yl)ethan-1-one] | < 100 | < 100 |
| Cc1nc(N[C@H](C)c2cccc3c2CCC3(F)F)c2cc(N3CCOCC3)c3nncn3c2n1 [Example 23, N-[(1R)-1-(1,1-difluoro-2,3-dihydro-1H-inden-4-yl)ethyl]-12-methyl-7-(morpholin-4-yl)-2,4,5,11,13-pentaazatricyclo[7.4.0.0^{2,6}]trideca-1(9),3,5,7,10,12-hexaen-10-amine] | < 100 | < 100 |
| C[C@@H](Nc1nc(C(F)(F)F)nc2c1cc(-c1ccc(=O)n(C)c1)c1c2cnn1C)c1cccc(C(F)(F)CO)c1 [Example 32, (R)-5-(4-((1-(3-(1,1-difluoro-2-hydroxyethyl)phenyl)ethyl)amino)-7-methyl-2-(trifluoromethyl)-7H-pyrazolo[3,4-h]quinazolin-6-yl)-1-methylpyridin-2(1H)-one] | 100 to 500 | 100 to 500 |
| Cc1nc(N[C@H](C)c2cccc(C(F)(F)CO)c2)c2cc(O[C@H]3CCN(C)C3)c3nncn3c2n1 [Example 22, 2,2-difluoro-2-(3-((R)-1-((2-methyl-6-(((S)-1-methylpyrrolidin-3-yl)oxy)-[1,2,4]triazolo[4′,3′:1,6]pyrido[2,3-d]pyrimidin-4-yl)amino)ethyl)phenyl)ethan-1-ol] | < 100 | < 100 |
| C[C@@H](Nc1nc(C(F)(F)F)nc2c1cc(-c1ccc(=O)n(C)c1)c1c2cnn1C)c1cc(F)cc(C(F)(F)CO)c1 [Example 33, (R)-5-(4-((1-(3-(1,1-difluoro-2-hydroxyethyl)-5-fluorophenyl)ethyl)amino)-7-methyl-2-(trifluoromethyl)-7H-pyrazolo[3,4-h]quinazolin-6-yl)-1-methylpyridin-2(1H)-one] | 100 to 500 | 100 to 500 |
| C[C@@H](Nc1nc2ccnn2c2cc(=O)n(C3CCNCC3)cc12)c1cccc(C(F)(F)CO)c1 [Example 77, 8-{[(1R)-1-[3-(1,1-difluoro-2-hydroxyethyl)phenyl]ethyl]amino}-11-(piperidin-4-yl)-2,3,7,11-tetraazatricyclo[7.4.0.0^{2,6}]trideca-1(13),3,5,7,9-pentaen-12-one] | < 100 | < 100 |
| CC(=O)N1CCC(c2cc3c(N[C@H](C)c4cccc(C(F)(F)F)c4)nc(C)nc3n3cnnc23)CC1 [Example 9, (R)-1-(4-(2-methyl-4-((1-(3-(trifluoromethyl)phenyl)ethyl)amino)-[1,2,4]triazolo[4′,3′:1,6]pyrido[2,3-d]pyrimidin-6-yl)piperidin-1-yl)ethan-1-one] | < 100 | < 100 |
| CC(=O)N1CCC(c2cc3c(N[C@H](C)c4cccc(C(F)(F)CO)c4)nc(C)nc3n3cnnc23)CC1 [Example 12, (R)-1-(4-(4-((1-(3-(1,1-difluoro-2-hydroxyethyl)phenyl)ethyl)amino)-2-methyl-[1,2,4]triazolo[4′,3′:1,6]pyrido[2,3-d]pyrimidin-6-yl)piperidin-1-yl)ethan-1-one] | < 100 | < 100 |
| C[C@@H](Nc1nc2ccnn2c2cc(=O)n(C3(C)CC3)cc12)c1cccc(C(F)(F)CO)c1 [Example 61, (R)-5-((1-(3-(1,1-difluoro-2-hydroxyethyl)phenyl)ethyl)amino)-7-(1-methylcyclopropyl)pyrazolo[1,5-a]pyrido[3,4-e]pyrimidin-8(7H)-one] | < 100 | < 100 |
| C[C@@H](Nc1nc2ccnn2c2cc(=O)n(C3(C(F)F)CC3)cc12)c1cccc(C(F)(F)CO)c1 [Example 68, (R)-5-((1-(3-(1,1-difluoro-2-hydroxyethyl)phenyl)ethyl)amino)-7-(1-(difluoromethyl)cyclopropyl)pyrazolo[1,5-a]pyrido[3,4-e]pyrimidin-8(7H)-one] | < 100 | < 100 |
| CC(=O)N1CCC(c2cc3c(N[C@H](C)c4cc(C(C)(C)O)cc(C(F)(F)F)c4)nc(C)nc3n3cnnc23)CC1 [Example 13, (R)-1-(4-(4-((1-(3-(2-hydroxypropan-2-yl)-5-(trifluoromethyl)phenyl)ethyl)amino)-2-methyl-[1,2,4]triazolo[4′,3′:1,6]pyrido[2,3-d]pyrimidin-6-yl)piperidin-1-yl)ethan-1-one] | > 5000 | > 5000 |
| Cc1nc(N[C@H](C)c2cc(C(C)(C)O)cc(C(F)(F)F)c2)c2cc(-c3ccc(=O)n(C)c3)c3c(cnn3C)c2n1 [Example 26, (R)-5-(4-((1-(3-(2-hydroxypropan-2-yl)-5-(trifluoromethyl)phenyl)ethyl)amino)-2,7-dimethyl-7H-pyrazolo[3,4-h]quinazolin-6-yl)-1-methylpyridin-2(1H)-one] | > 5000 | > 5000 |
| Cc1nc(N[C@H](C)c2cccc(C(F)(F)CO)c2)c2cc(-c3ccc(=O)n(C)c3)c3nn(C(F)(F)F)cc3c2n1 [Example 34, 5-(4-{[(1R)-1-[3-(1,1-difluoro-2-hydroxyethyl)phenyl]ethyl]amino}-2-methyl-8-(trifluoromethyl)-8H-pyrazolo[3,4-h]quinazolin-6-yl)-1-methyl-1,2-dihydropyridin-2-one] | 100 to 500 | 100 to 500 |
| COCC(=O)N1CCC(c2cc3c(N[C@H](C)c4cccc5c4CCC5(F)F)nc(C)nc3n3cnnc23)CC1 [Example 10, (R)-1-(4-(4-((1-(1,1-difluoro-2,3-dihydro-1H-inden-4-yl)ethyl)amino)-2-methyl-[1,2,4]triazolo[4′,3′:1,6]pyrido[2,3-d]pyrimidin-6-yl)piperidin-1-yl)-2-methoxyethan-1-one] | < 100 | < 100 |

From patent US20240109891A1, “NOVEL SUBSTITUTED TRICYCLIC AZA-HETEROCYCLES AS SOS1 INHIBITORS” (Viva Star Biosciences (Suzhou) Co., Ltd., priority 2021, published 2024)
